For orientation: EC20 means the concentration at which the effect reaches the 20% level.

Each structure is given as a SMILES string.

Test [1] addresses T1, rat PTH1R (Rattus norvegicus, UniProt P25961).
T1 construct: expressed in transfected cells
T1 sequence (P25961 27-591): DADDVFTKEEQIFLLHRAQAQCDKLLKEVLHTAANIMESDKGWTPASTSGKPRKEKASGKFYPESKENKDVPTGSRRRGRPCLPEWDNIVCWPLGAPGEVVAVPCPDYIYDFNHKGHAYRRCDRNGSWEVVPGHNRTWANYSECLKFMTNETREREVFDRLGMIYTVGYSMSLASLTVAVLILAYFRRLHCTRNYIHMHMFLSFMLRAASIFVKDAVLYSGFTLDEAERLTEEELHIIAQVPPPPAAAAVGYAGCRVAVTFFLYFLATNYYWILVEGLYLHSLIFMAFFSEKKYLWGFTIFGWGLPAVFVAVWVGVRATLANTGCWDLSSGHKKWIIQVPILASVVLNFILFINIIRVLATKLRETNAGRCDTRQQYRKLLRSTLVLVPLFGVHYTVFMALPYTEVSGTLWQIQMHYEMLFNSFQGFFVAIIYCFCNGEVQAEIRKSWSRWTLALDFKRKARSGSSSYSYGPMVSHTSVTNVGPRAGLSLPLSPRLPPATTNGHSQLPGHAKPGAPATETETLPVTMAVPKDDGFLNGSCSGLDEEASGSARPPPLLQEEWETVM
Briefly: In vitro cAMP signaling activity via the rat PTH1R (LLC-PK46_RATO_PTH1R cells). In kind it is cell-based. As to conditions: LLC-PK46_RATO_PTH1R cells overexpressing rat PTH1R. An excerpt:
Instead of HKRK-B7 cells, LLC-PK46_RATO_PTH1R cells overexpressing rat PTH1R, which were established at Chugai Pharmaceutical, were used to take measurements in a similar manner to Reference Test Example 1.

The test system of test [2] is TPTX rat. Nature of the test: Calcemic action in the TPTX rat model. The test is classed as in vivo. To be noted: TPTX rats, 30 mg/kg oral. The protocol:
Four-week old female Crl:CD(SD) rats were obtained from Charles River Japan (Atsugi Breeding Center), and were acclimated to standard laboratory conditions of 20-26° C. and 35-75% humidity for one week. The rats were given tap water and were fed ad libitum with standard rodent chow (CE-2) (CLEA Japan, Inc.) containing 1.1% calcium, 1.0% phosphoric acid, and 250 IU/100 g of vitamin D3.
TPTX was performed on five-week old rats. Some of the individuals were subjected to sham operation (Sham). Individuals whose serum Ca concentration was less than 8 mg/dL on four days after the operation were selected for use as TPTX rats. On five days after the operation, the rats were assigned to eight TPTX groups and one Sham group (n=5, each group) based on their body weight and serum Ca concentration measured on four days after the operation. The solvent alone was orally administered to the Sham group and the TPTX-Vehicle group at a volume of 10 mL/kg. Each test article was orally administered individually to each TPTX test article group by dissolving it in a solvent at a dose of 30 mg/10 mL/kg. The solvent composition was 10% dimethylsulfoxide (Wako Pure Chemical Industries, Ltd.), 10% Cremophor EL (Sigma-Aldrich Japan LLC), 20% hydroxypropyl-β-cyclodextrin (Nihon Shokuhin Kako Co., Ltd.), glycine (Wako Pure Chemical Industries, Ltd.); and the pH was adjusted to 10. Immediately before administration of each sample, Pre-blood collection was performed, and blood collection was carried out at 2, 6, 10, and 24 hours after administration to measure the serum Ca concentration. Each blood collection was carried out from the jugular vein under isoflurane inhalation anesthesia.
Serum Ca measurement: Serum obtained by centrifugation from the collected blood was measured by using an automatic analyzer TBA-120FR (Toshiba Medical Systems Corporation).
For statistical analysis of the animal studies, data are shown as mean±standard error (SE). Statistical analysis were performed by unpaired test of the SAS Preclinical Package (Ver. 5.00.010720, SAS Institute Japan, Tokyo, Japan).

In turn, `Cc1cc(N2C(=O)NC(=O)C2(C)C)cc(C)c1CCS(=O)(=O)N1CCC2(CC1)N=C(c1ccc(OC(F)(F)F)cc1)NC2=O` [Compound 7, 1-(3,5-dimethyl-4-(2-((4-oxo-2-(4-(trifluoromethoxy)phenyl)-1,3,8-triazaspiro[4.5]deca-1-en-8-yl)sulfonyl)ethyl)phenyl)-5,5-dimethylimidazolidine-2,4-dione] showed an EC20 in test [1] of 500 nM. Moreover, the “achievement of the therapeutic target range of serum Ca concentration of 7.6 to 8.8 mg/dL” value in test [2] is “achieved the therapeutic target range”. Also, the “change of serum Ca concentration from the Pre-value (in words)” value in test [2] (up to 24 hours after administration) is on record as “large positive changes from the Pre-value”.
